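Five concentrations, 48 hours, 96-well plates. GI50 marks 50% less growth.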 Calls of active or inactive are those of the source. Cut-off read from the data, not from the text of the source: active = GI50 up to about 1.1 µM and inactive = higher.
What was measured:
Assay in all cases: growth of human tumour cells (NCI), 48 h
786-0 = system: 786-0
ACHN = system: ACHN
CCRF-CEM = system: CCRF-CEM
HCT-116 = system: HCT-116
HOP-62 = system: HOP-62
KM12 = system: KM12
LOX IMVI = system: LOX IMVI
MDA-N = system: MDA-N
NCI-H226 = system: NCI-H226
NCI/ADR-RES = system: NCI/ADR-RES
OVCAR-5 = system: OVCAR-5
RPMI-8226 = system: RPMI-8226
SF-268 = system: SF-268
SF-539 = system: SF-539
SK-MEL-28 = system: SK-MEL-28
SK-MEL-5 = system: SK-MEL-5
T47D = system: T47D
TK-10 = system: TK-10
U-251 = system: U-251
NCI-H522 = system: NCI-H522

SMILES	GI50 (786-0)	GI50 (ACHN)	GI50 (CCRF-CEM)	GI50 (HCT-116)	GI50 (HOP-62)	GI50 (KM12)	GI50 (LOX IMVI)	GI50 (MDA-N)	GI50 (NCI-H226)	GI50 (NCI/ADR-RES)	GI50 (OVCAR-5)	GI50 (RPMI-8226)	GI50 (SF-268)	GI50 (SF-539)	GI50 (SK-MEL-28)	GI50 (SK-MEL-5)	GI50 (T47D)	GI50 (TK-10)	GI50 (U-251)	GI50 (NCI-H522)
CC(=O)OCC1OC(SC2OC(COC(C)=O)C(OC(C)=O)C(OC(C)=O)C2OC(C)=O)C(OC(C)=O)C(OC(C)=O)C1OC(C)=O (configuration not stated)	> 100 µM (inactive)	52.5 µM (inactive)	> 100 µM (inactive)	> 100 µM (inactive)	> 100 µM (inactive)	> 100 µM (inactive)	> 100 µM (inactive)	> 100 µM (inactive)	> 100 µM (inactive)	> 100 µM (inactive)	> 100 µM (inactive)	> 100 µM (inactive)	> 100 µM (inactive)	> 100 µM (inactive)	> 100 µM (inactive)	> 100 µM (inactive)	> 100 µM (inactive)	> 100 µM (inactive)	> 100 µM (inactive)	
CCCNC(=O)N1CC(CN2CCN(c3ccccc3)CC2)O/C1=N/C(=O)Nc1ccccc1 (configuration not stated)	> 100 µM (inactive)	> 100 µM (inactive)		> 100 µM (inactive)	> 100 µM (inactive)	> 100 µM (inactive)	67.8 µM (inactive)	> 100 µM (inactive)	2.09 µM (inactive)	50.6 µM (inactive)	> 100 µM (inactive)	> 100 µM (inactive)	> 100 µM (inactive)		> 100 µM (inactive)	40.8 µM (inactive)	18.2 µM (inactive)	82.4 µM (inactive)	> 100 µM (inactive)	40.7 µM (inactive)
CCOC(=O)[C@@H]1[C@@H](c2ccccc2)N(C)O[C@@]1(c1ccccc1)C(F)(F)F	> 100 µM (inactive)	44.8 µM (inactive)	20.1 µM (inactive)	36.5 µM (inactive)	> 100 µM (inactive)	58.9 µM (inactive)	70.5 µM (inactive)	52.8 µM (inactive)	23.1 µM (inactive)	> 100 µM (inactive)	> 100 µM (inactive)	20.7 µM (inactive)	> 100 µM (inactive)		85.9 µM (inactive)	27 µM (inactive)	67.9 µM (inactive)	> 100 µM (inactive)	50.4 µM (inactive)	39.9 µM (inactive)
Cc1ccc(N2CCC3(CC2)OCCO3)cc1	> 100 µM (inactive)	> 100 µM (inactive)	> 100 µM (inactive)	> 100 µM (inactive)	> 100 µM (inactive)	> 100 µM (inactive)		> 100 µM (inactive)	> 100 µM (inactive)	> 100 µM (inactive)	> 100 µM (inactive)	> 100 µM (inactive)	> 100 µM (inactive)	> 100 µM (inactive)	> 100 µM (inactive)	> 100 µM (inactive)	> 100 µM (inactive)	> 100 µM (inactive)	> 100 µM (inactive)	> 100 µM (inactive)
Oc1ccc(-c2nc3cc(F)ccc3s2)cc1	28.6 µM (inactive)	20.3 µM (inactive)	43.8 µM (inactive)	17.5 µM (inactive)	24.7 µM (inactive)	20.5 µM (inactive)	17.9 µM (inactive)	28.4 µM (inactive)	17.3 µM (inactive)	20 µM (inactive)	23.1 µM (inactive)	24 µM (inactive)	26.7 µM (inactive)		21.6 µM (inactive)	19.5 µM (inactive)	5.22 µM (inactive)	34.1 µM (inactive)	19.9 µM (inactive)	15.3 µM (inactive)
Oc1cc(-c2cccc(F)c2)nc2cc3c(cc12)OCO3	0.0441 µM (active)	0.119 µM (active)	0.0507 µM (active)	0.0405 µM (active)	0.165 µM (active)	0.0341 µM (active)	0.0692 µM (active)	0.0111 µM (active)		0.0199 µM (active)	0.345 µM (active)	0.0581 µM (active)	0.115 µM (active)	0.0573 µM (active)	0.0439 µM (active)	0.03 µM (active)	> 100 µM (inactive)	0.879 µM (active)	0.0757 µM (active)	0.029 µM (active)
COc1c(OC/C=C(\C)CCC=C(C)C)ccc2ccc(=O)oc12 [COLLININ]	> 100 µM (inactive)	> 100 µM (inactive)	> 100 µM (inactive)	> 100 µM (inactive)	> 100 µM (inactive)	43.6 µM (inactive)	> 100 µM (inactive)	> 100 µM (inactive)		95.9 µM (inactive)	> 100 µM (inactive)	> 100 µM (inactive)	96.8 µM (inactive)	> 100 µM (inactive)	> 100 µM (inactive)	48.1 µM (inactive)	62.5 µM (inactive)	> 100 µM (inactive)	> 100 µM (inactive)	> 100 µM (inactive)

Source: ChEMBL document CHEMBL1201862, “PubChem BioAssay data set” (2004)
